Laboratory results as given in paper PMC4148174 (Biochemical Journal, 2014).
Like-named read-outs stand apart in the source and are kept apart here.

How the values were obtained:
[1] = Typical blood serum levels; format: in vivo; details: 1000-fold accumulation at combined membrane potentials of 180 mV
[2] = tested on: complex I; assay: NADH:FeCN oxidoreduction by complex I from E. coli; format: biochemical, Escherichia coli; details: 200 mM metformin
Description: (§1) NADH:decylubiquinone oxidoreduction was measured using 200 μM NADH and 200 μM decylubiquinone, in 0.075% soya bean asolectin (Avanti Polar Lipids) and 0.075% CHAPS (Merck Chemicals) and quantified by the absorbance of NADH (ε340–380=4.81 mM^−1·cm^−1). Catalysis was initiated by the addition of NADH, following a 2 min pre-incubation, and rates measured as the linear regression of the maximal rate (discarding any initial lag phases). […] Initial rates for the NADH:FeCN (ferricyanide), NADH:HAR [hexaammineruthenium(III)] and NADH:paraquat reactions were measured in 100 μM NADH with 1 mM FeCN (ε420–500=1 mM^−1·cm^−1), 3.5 mM HAR or 200 μM paraquat (ε340–380=4.81 mM^−1·cm^−1). H2O2 formation was followed in 30 μM NADH as the catalase-sensitive horseradish peroxidase-dependent oxidation of 10 μM Amplex Red to resorufin (ε557–620=51.6 mM^−1·cm^−1), with 2 units/ml superoxide dismutase, or by monitoring NADH oxidation. Metformin (Cambridge Bioscience) phenformin and buformin (Santa Cruz Biotechnology) were added from aqueous stock solutions, and cycloguanil (Santa Cruz Biotechnology) and proguanil (Sigma–Aldrich) were in DMSO. Control experiments included NaCl (to maintain the ionic strength) or DMSO.

[3] = tested on: 143B osteosarcoma cells; assay: Rotenone-sensitive OCR of 143B cells (Seahorse); format: cell-based, human; details: 6 h exposure, read-out: cellular IC50, rotenone-sensitive OCR
Description: Cells [143B (cell line 8303 from the A.T.C.C.) and Hep G2 (cell line 85011430 from The Health Protection Agency)] were grown on DMEM (Dulbecco's modified Eagle's medium) supplemented with 10% FBS (Thermo Fisher Scientific) and 100 units/ml penicillin and 100 μg/ml streptomycin at 37°C in 5% CO2. Per well, 3×10^4 or 1.5×10^4 cells were plated into XF24 or XF96 (Seahorse Bioscience) plates respectively, and incubated for 12 h at 37°C in 5% CO2. The medium was exchanged for assay buffer containing DMEM, 4.5 g/l glucose, 1 mM pyruvate, 32 mM NaCl, 2 mM GlutaMAX, 15 mg/l Phenol Red and 20 mM Hepes (pH 7.4) and the cells placed in a CO2-free incubator at 37°C for 60 min. OCRs (oxygen consumption rates) and ECARs (extracellular acidification rates) were measured in a Seahorse extracellular flux analyser; 200 nM rotenone was used to inhibit complex I where stated. To calculate the normalized rotenone-sensitive OCR rates, the rotenone-insensitive rates (determined at the end of the experiment) were subtracted and the traces normalized to 100% before biguanide addition. ECAR data were normalized to 100% before biguanide addition. For the permeabilized cell experiments, cells were seeded at 3.5×10^3 per well and incubated for 62 h at 37°C in 5% CO2. The medium was exchanged for assay buffer containing 3 nM plasma membrane permeabilizer ‘PMP’ (Seahorse Biosciences), 10 mM pyruvate, 10 mM malate, 220 mM mannitol, 70 mM sucrose, 10 mM KH2PO4, 5 mM MgCl, 1 mM EGTA, 0.2% fatty-acid-free BSA and 2 mM Hepes (pH 7.4) at 37°C. Cells were incubated for 15 min and a baseline was recorded for normalization, then the test compounds were added. […]
Biguanides are positively charged so they are expected to accumulate in the mitochondria of cells in response to the potential difference across the inner membrane (the potential difference is the ‘charge’ component of the protonmotive force). […] The OCRs were normalized to their values before biguanide addition, and monitored throughout the experiment; rotenone-insensitive rates were subtracted, and all rates after 6 h compared with a biguanide-free control. […]

[4] = tested on: T1, complex I in SMPs; assay: NADH oxidation by SMPs; format: biochemical, bovine; details: 100 mM metformin added 10 min after initiation by 200 μM NADH
T1 construct: from tissue; host or cells: SMPs from bovine heart mitochondria

[5] = tested on: T2, complex I flavin; assay: H2O2 production (NADH:O2 oxidoreduction) by isolated complex I; format: biochemical, bovine; details: dose-response
T2 construct: from tissue; host or cells: bovine heart mitochondria (from context)
Description: as §1

[6] = tested on: isolated rat skeletal muscle mitochondria; assay: H2O2 production by isolated rat skeletal muscle mitochondria (resorufin fluorescence); details: glutamate and pyruvate, ATP and rotenone
Source text: . However, these extramitochondrial concentrations are very high and we are unable to control the intramitochondrial concentration or conditions, so the results are not quantitatively meaningful. […]

[7] = set-up: method as in PMID 12889529; details: cited from earlier work
[8] = tested on: T3, complex I (NADH:ubiquinone oxidoreductase); assay: NADH:decylubiquinone oxidoreduction by isolated complex I; format: biochemical, Bos taurus (bovine); details: for inhibition of complex I catalysis at extrapolated mitochondrial concentration: 10 mM metformin, 200 μM phenformin in mitochondria; for IC50: isolated bovine complex I, 32°C, pH 7.2, 200 μM NADH, 200 μM decylubiquinone, 95% confidence intervals
T3 construct: from tissue; host or cells: bovine heart mitochondria
Description: Catalysis was initiated by the addition of NADH, following a 2 min pre-incubation, and rates measured as the linear regression of the maximal rate (discarding any initial lag phases). […] Control experiments included NaCl (to maintain the ionic strength) or DMSO.
Experimental values are reported as means±S.E.M. for small sample sizes or as means±S.D. for large sample sizes with only technical error sources. […] Comparisons between samples are marked *P<0.05, **P<0.01 and ****P<0.0001 as determined using an unpaired two-tailed Students t test. Differences between measurements with P>0.05 were considered not significant.

[9] = tested on: T4, ATP synthase; assay: Succinate-driven ATP synthesis by SMPs; format: biochemical, bovine; details: 15 mM buformin, 100 mM metformin; others up to concentrations above IC50 for ATP hydrolysis; corrected for succinate oxidation
T4 construct: from tissue; host or cells: SMPs from bovine heart mitochondria
Source text: Data points are means±S.E.M., n=3, as a percentage of ATP production in the absence of biguanide. […] (●).

[10] = tested on: T5, complex I flavin site; assay: NADH-dependence of NADH:FeCN catalysis by isolated bovine complex I; format: biochemical; details: 100 mM metformin
T5 construct: from tissue; host or cells: bovine heart mitochondria

[11] = tested on: Hep G2 hepatocarcinoma cells; assay: Rotenone-sensitive OCR and ECAR of Hep G2 cells (Seahorse); format: cell-based, human; details: for IC50: Hep G2 cells, 6 h exposure, read-out: cellular IC50, rotenone-sensitive OCR; for effect on rotenone-sensitive OCR or ECAR: concentration equal to complex I IC50/10, 6 h of treatment
Description: OCRs (oxygen consumption rates) and ECARs (extracellular acidification rates) were measured in a Seahorse extracellular flux analyser; 200 nM rotenone was used to inhibit complex I where stated. To calculate the normalized rotenone-sensitive OCR rates, the rotenone-insensitive rates (determined at the end of the experiment) were subtracted and the traces normalized to 100% before biguanide addition. ECAR data were normalized to 100% before biguanide addition. […] Isolated rat liver mitochondria were plated at 20 μg per well in the same buffer but without PMP. They were adhered to the plate by centrifugation at 2000 g for 20 min at 4°C and measurements performed and normalized (after temperature equilibration) as for permeabilized cells but at 32°C.
(§2) Biguanides are positively charged so they are expected to accumulate in the mitochondria of cells in response to the potential difference across the inner membrane (the potential difference is the ‘charge’ component of the protonmotive force). Each 60 mV of potential difference drives the concentration of the positive ion to 10-times higher inside the mitochondrion than outside. For a typical potential difference of 120–150 mV the concentration inside the mitochondrion could therefore be 100 to 300-times higher than outside. […] The OCRs were normalized to their values before biguanide addition, and monitored throughout the experiment; rotenone-insensitive rates were subtracted, and all rates after 6 h compared with a biguanide-free control.

[12] = target: complex I; assay: NADH:decylubiquinone oxidoreduction by isolated complex I from bacterium; format: biochemical, Escherichia coli; details: read-out: IC50, inhibition of complex I; complex I from the bacterium E. coli
Description: (§3) Complex I was prepared from Bos taurus (bovine) heart mitochondria, Pichia pastoris and Escherichia coli, as described previously. SMPs (submitochondrial particles) and mitochondrial membranes were prepared from bovine heart mitochondria. Complex IV was a by-product from the preparation of complex I; it elutes from the Q-Sepharose column at ~250 mM NaCl. Mitochondria were isolated from rat liver by the method of Chappell and Hansford. F1FO-ATP synthase and the F1 domain were isolated from bovine mitochondria as described previously using a HiLoad Superdex 200-PG column and omitting azide and 2-mercaptoethanol.
(§4) NADH:decylubiquinone oxidoreduction was measured using 200 μM NADH and 200 μM decylubiquinone, in 0.075% soya bean asolectin (Avanti Polar Lipids) and 0.075% CHAPS (Merck Chemicals) and quantified by the absorbance of NADH (ε340–380=4.81 mM^−1·cm^−1). Catalysis was initiated by the addition of NADH, following a 2 min pre-incubation, and rates measured as the linear regression of the maximal rate (discarding any initial lag phases). […] Initial rates for the NADH:FeCN (ferricyanide), NADH:HAR [hexaammineruthenium(III)] and NADH:paraquat reactions were measured in 100 μM NADH with 1 mM FeCN (ε420–500=1 mM^−1·cm^−1), 3.5 mM HAR or 200 μM paraquat (ε340–380=4.81 mM^−1·cm^−1). […]

[13] = tested on: complex I; assay: NADH:FeCN oxidoreduction by complex I from P. pastoris; format: biochemical, Pichia pastoris; details: 200 mM metformin
Description: as §1

[14] = tested on: immunoprecipitated complex I; set-up: method as in PMID 18817800; details: previous data; cited from earlier work
[15] = tested on: complex I; assay: NADH:decylubiquinone oxidoreduction by isolated complex I from yeast; format: biochemical, Pichia pastoris; details: complex I from the yeast P. pastoris; read-out: IC50, inhibition of complex I
Description: as §3, §4

[16] = tested on: T6, isolated F1 domain of ATPase; assay: ATP hydrolysis by the isolated F1 domain; format: biochemical, bovine; details: at the SMP IC50 values
T6 construct: from tissue; host or cells: bovine mitochondria
Description: as §3, with “Complex IV was a by-product from the preparation of complex I; it elutes from the Q-Sepharose column at ~250 mM NaCl.” left out

[17] = tested on: 143B and Hep G2 cells; assay: Accumulation into mitochondria of cultured cells inferred from complex I inhibition; format: cell-based, human; details: 6 h
Source text: as §2, with “control. […]. […] […].” for “control.”

[18] = target: T7, isolated ATPase (F1FO-ATP synthase); assay: ATP hydrolysis by isolated intact ATPase; format: biochemical, bovine; details: isolated intact enzyme
T7 construct: from tissue; host or cells: bovine mitochondria
Description: as §3

[19] = target: T8, F1FO-ATPase; assay: ATP hydrolysis by F1FO-ATPase in SMPs (coupled assay); format: biochemical; details: bovine SMPs
T8 construct: from tissue; host or cells: SMPs from bovine heart mitochondria

[20] = target: complex III; assay: Complex III inhibition (succinate:cytochrome c oxidoreduction); details: read-out: IC50 on complex III

## CN(C)C(=N)N=C(N)N [metformin]
[1]
  mitochondrial concentration extrapolated from serum: 10 mM
[2]
  NADH:FeCN reaction rate (stimulation): 144±2%
[3]
  IC50: 240 ± 10 µM
[3]; Homo sapiens, 143B, 6 h
  IC50: 237 ± 13 µM
[4]
  time for inhibition to attain the same level when added during catalysis: more than 30 min
[5]
  H2O2 production rate maximum: 338±41%
[6]; 50 mM metformin
  stimulation of H2O2 production rate: 270±34%
[6]; 100 mM metformin
  stimulation of H2O2 production rate: 360±35%
[7]
  serum concentration: ~ 10 μM
[8]
  inhibition of complex I catalysis at extrapolated mitochondrial concentration: ~ 25%
  IC50: 19400 ± 1400 µM
[8]; Michaelis-Menten analysis towards decylubiquinone
  mode of inhibition of complex I: reversible non-competitive inhibitor
[9]
  effect on succinate-driven ATP synthesis: No inhibition
[10]
  increase of the dissociation constant for NADH to the reduced flavin: ~ 20 times
[10]; control 11 μM, data fit
  KNADHRed (dissociation constant for NADH binding to the reduced flavin): 181 µM
[11]
  IC50: 330 ± 20 µM
[11]; Homo sapiens, HepG2, 6 h
  IC50: 325 ± 25 µM
[12]
  IC50: 60700 ± 8500 µM
[13]
  NADH:FeCN reaction rate (stimulation): 166±1%
[14]
  IC50: 66000 µM
[15]
  IC50: 22600 ± 4300 µM

## CCCCNC(=N)NC(=N)N [buformin]
[9]
  effect on succinate-driven ATP synthesis: No inhibition
[16]
  inhibition of ATP hydrolysis by the isolated F1 domain: 74±3%

## [H]/N=C(/N)N/C(=N/[H])NCCc1ccccc1 [phenformin]
[1]
  mitochondrial concentration extrapolated from serum: 0.2 mM
[3]; Homo sapiens, 143B, 6 h
  IC50: 3.81 ± 1.12 µM
[7]
  serum concentration: ~ 200 nM
[8]
  inhibition of complex I catalysis at extrapolated mitochondrial concentration: ~ 25%
[9]
  effect on succinate-driven ATP synthesis: inhibition of synthesis is observed at higher concentrations
[11]; Homo sapiens, HepG2
  IC50: 3.8 ± 0.38 µM
[11]; concentration equal to complex I IC50/10 (0.04 mM phenformin)
  time for uptake to reach completion: approximately 6 h
[16]
  inhibition of ATP hydrolysis by the isolated F1 domain: 32±7.5%
[17]
  accumulation (isolated complex I IC50 versus cellular IC50): 120 fold

## N=C(N)N [guanidinium]
[5]
  H2O2 production rate maximum: 386±34%
[8]
  IC50: 25800 ± 3900 µM

## [H]/N=C(\N/C(=N/[H])Nc1ccc(Cl)cc1)NC(C)C [proguanil]
[18]
  IC50: 0.67 ± 0.1 µM
[9]
  effect on succinate-driven ATP synthesis: neither cycloguanil or proguanil affect ATP synthesis
[11]
  effect on rotenone-sensitive OCR or ECAR: neither proguanil nor cycloguanil exhibited any substantial effect
[16]
  inhibition of ATP hydrolysis by the isolated F1 domain: no significant inhibition
[19]
  IC50: 6.8 ± 0.7 µM

## CC1(C)N=C(N)N=C(N)N1c1ccc(Cl)cc1 [cycloguanil]
[20]
  IC50: 2480 ± 210 µM
[9]
  effect on succinate-driven ATP synthesis: neither cycloguanil or proguanil affect ATP synthesis
[11]
  effect on rotenone-sensitive OCR or ECAR: neither proguanil nor cycloguanil exhibited any substantial effect
[16]
  inhibition of ATP hydrolysis by the isolated F1 domain: no significant inhibition
